Measured values taken from US20230085307A1, “PYRIDAZINONE COMPOUND AND HERBICIDE” (NISSAN CHEMICAL CORPORATION, priority 2019, published 2023).

Key:
[1] = tested on: late watergrass; assay: Test Example 1: herbicidal activity, application before weed generation under submerged conditions (Table 16, symbol A); assay type: in vivo, late watergrass (Echinochloa oryzicola)
Procedure, shortened: (§1)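 Alluvial soil was flooded to 4 cm depth, weed seeds were sown mixed and 2.5-leaf rice seedlings were transplanted. On sowing day, the compound's emulsion, diluted in water to a set dose, was applied to the water surface. Plants grew at 25–30 °C and were scored 0–5 after three weeks.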

[2] = tested on: Japanese bulrush; assay: Test Example 1: herbicidal activity, application before weed generation under submerged conditions (Table 16, symbol B); assay type: in vivo, Japanese bulrush (Schoenoplectus juncoides)
Procedure, shortened: as §1

[3] = tested on: oval-leafed pondweed; assay: Test Example 1: herbicidal activity, application before weed generation under submerged conditions (Table 16, symbol C); assay type: in vivo, oval-leafed pondweed (Monochoria vaginalis)
Procedure, shortened: as §1

[4] = tested on: barnyard grass; assay: Test Example 3: herbicidal effect by foliage application, Wagner pot (Table 18, symbol H); assay type: in vivo, barnyard grass (Echinochloa crus-galli)
Procedure, shortened: (§2)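 Plants were sown in alluvial soil held under 0.1–0.5 cm standing water and grown 14 days in a greenhouse at 25–30 °C. An emulsifiable formulation, water-diluted to the set dose, was then sprayed onto the foliage, and effects were scored three weeks later using previously defined criteria.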

[5] = tested on: Chinese sprangletop; assay: Test Example 3: herbicidal effect by foliage application, Wagner pot (Table 18, symbol D); assay type: in vivo, chinese sprangletop (Leptochloa chinensis)
Procedure, shortened: as §2

[6] = tested on: rice flat sedge; assay: Test Example 3: herbicidal effect by foliage application, Wagner pot (Table 18, symbol E); assay type: in vivo, rice flat sedge (Cyperus iria)
Procedure, shortened: as §2

[7] = tested on: southern crabgrass; assay: Test Example 4: herbicidal effect by soil treatment (Table 19, symbol F); assay type: in vivo, southern crabgrass (Digitaria ciliaris)
Procedure, shortened: (§3)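 Step 1: sow seeds in sterilized diluvial soil, cover ~1.5 cm. Step 2: spray diluted emulsion onto soil surface at predetermined rate. Step 3: greenhouse, 25–30° C, three weeks. Step 4: grade effect on each plant by earlier criteria.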

[8] = tested on: green foxtail; assay: Test Example 4: herbicidal effect by soil treatment (Table 19, symbol G); assay type: in vivo, green foxtail (Setaria viridis)
Procedure, shortened: as §3

[9] = tested on: barnyard grass; assay: Test Example 4: herbicidal effect by soil treatment (Table 19, symbol H); assay type: in vivo, barnyard grass (Echinochloa crus-galli)
Procedure, shortened: as §3

[10] = tested on: wild oat; assay: Test Example 4: herbicidal effect by soil treatment (Table 19, symbol I); assay type: in vivo, wild oat (Avena fatua)
Procedure, shortened: as §3

[11] = tested on: blackgrass; assay: Test Example 4: herbicidal effect by soil treatment (Table 19, symbol J); assay type: in vivo, blackgrass (Alopecurus myosuroides)
Procedure, shortened: as §3

[12] = tested on: Italian ryegrass; assay: Test Example 4: herbicidal effect by soil treatment (Table 19, symbol K); assay type: in vivo, Italian ryegrass (Lolium multiflorum)
Procedure, shortened: as §3

[13] = tested on: windgrass; assay: Test Example 4: herbicidal effect by soil treatment (Table 19, symbol L); assay type: in vivo, windgrass (Apera spica-venti)
Procedure, shortened: as §3

[14] = tested on: velvetleaf; assay: Test Example 4: herbicidal effect by soil treatment (Table 19, symbol M); assay type: in vivo, velvetleaf (Abutilon theophrasti)
Procedure, shortened: as §3

[15] = tested on: redroot pigweed; assay: Test Example 4: herbicidal effect by soil treatment (Table 19, symbol N); assay type: in vivo, redroot pigweed (Amaranthus retroflexus); conditions: amount of applied herbicide 320 g/ha
Procedure, shortened: as §3

[16] = tested on: lambsquarters; assay: Test Example 4: herbicidal effect by soil treatment (Table 19, symbol O); assay type: in vivo, lambsquarters (Chenopodium album)
Procedure, shortened: as §3

[17] = tested on: chickweed; assay: Test Example 4: herbicidal effect by soil treatment (Table 19, symbol P); assay type: in vivo, common chickweed (Stellaria media)
Procedure, shortened: as §3

[18] = tested on: persian speedwell; assay: Test Example 4: herbicidal effect by soil treatment (Table 19, symbol R); assay type: in vivo, Persian speedwell (Veronica persica)
Procedure, shortened: as §3

[19] = tested on: southern crabgrass; assay: Test Example 5: herbicidal effect by foliage application, plastic box (Table 20, symbol F); assay type: in vivo, southern crabgrass (Digitaria ciliaris); conditions: foliage application, evaluated three weeks after application
Procedure, shortened: (§4)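 Foliar spray test: emulsion formulation diluted in water to a set application rate, sprayed onto 14-day-old plants raised in diluvial soil at 25° C to 30° C under glass. Both herbicidal effect and crop effect rated visually three weeks later.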

[20] = tested on: green foxtail; assay: Test Example 5: herbicidal effect by foliage application, plastic box (Table 20, symbol G); assay type: in vivo, green foxtail (Setaria viridis); conditions: foliage application, evaluated three weeks after application
Procedure, shortened: as §4

[21] = tested on: barnyard grass; assay: Test Example 5: herbicidal effect by foliage application, plastic box (Table 20, symbol H); assay type: in vivo, barnyard grass (Echinochloa crus-galli); conditions: foliage application, evaluated three weeks after application
Procedure, shortened: as §4

[22] = tested on: wild oat; assay: Test Example 5: herbicidal effect by foliage application, plastic box (Table 20, symbol I); assay type: in vivo, wild oat (Avena fatua); conditions: foliage application, evaluated three weeks after application
Procedure, shortened: as §4

[23] = tested on: blackgrass; assay: Test Example 5: herbicidal effect by foliage application, plastic box (Table 20, symbol J); assay type: in vivo, blackgrass (Alopecurus myosuroides); conditions: foliage application, evaluated three weeks after application
Procedure, shortened: as §4

[24] = tested on: Italian ryegrass; assay: Test Example 5: herbicidal effect by foliage application, plastic box (Table 20, symbol K); assay type: in vivo, Italian ryegrass (Lolium multiflorum); conditions: foliage application, evaluated three weeks after application
Procedure, shortened: as §4

[25] = tested on: velvetleaf; assay: Test Example 5: herbicidal effect by foliage application, plastic box (Table 20, symbol M); assay type: in vivo, velvetleaf (Abutilon theophrasti); conditions: foliage application, evaluated three weeks after application
Procedure, shortened: as §4

[26] = tested on: redroot pigweed; assay: Test Example 5: herbicidal effect by foliage application, plastic box (Table 20, symbol N); assay type: in vivo, redroot pigweed (Amaranthus retroflexus); conditions: foliage application, evaluated three weeks after application
Procedure, shortened: as §4

[27] = tested on: lambsquarters; assay: Test Example 5: herbicidal effect by foliage application, plastic box (Table 20, symbol O); assay type: in vivo, lambsquarters (Chenopodium album); conditions: foliage application, evaluated three weeks after application
Procedure, shortened: as §4

[28] = tested on: chickweed; assay: Test Example 5: herbicidal effect by foliage application, plastic box (Table 20, symbol P); assay type: in vivo, common chickweed (Stellaria media); conditions: foliage application, evaluated three weeks after application
Procedure, shortened: as §4

[29] = tested on: persian speedwell; assay: Test Example 5: herbicidal effect by foliage application, plastic box (Table 20, symbol R); assay type: in vivo, Persian speedwell (Veronica persica); conditions: foliage application, evaluated three weeks after application
Procedure, shortened: as §4

[30] = tested on: windgrass; assay: Test Example 5: herbicidal effect by foliage application, plastic box (Table 20, symbol L); assay type: in vivo, windgrass (Apera spica-venti); conditions: foliage application, 176 g/ha, evaluated three weeks after application
Procedure, shortened: as §4

[31] = amount of applied herbicide 320 g/ha
[32] = amount of applied herbicide 176 g/ha

Cc1nn(C)c(=O)c(-c2c(-c3ccc(OC(F)F)cc3)sc3ccc(F)cc23)c1OS(=O)(=O)N(C)C [2-310]
Herbicidal effect on A: late watergrass (grade 0-5) ([1]; 320 g/ha applied herbicide): 0 (Herbicidal rate of 5% or less (almost no effect)) | Herbicidal effect on B: Japanese bulrush (grade 0-5) ([2]; 320 g/ha applied herbicide): 2 (Herbicidal rate of 20% or more and less than 40%) | Herbicidal effect on C: oval-leafed pondweed (grade 0-5) ([3]; 320 g/ha applied herbicide): 0 (Herbicidal rate of 5% or less (almost no effect)) | herbicidal effect on H: barnyard grass [4, 31]: 5 (Herbicidal rate of 90% or more (almost completely withered)) | herbicidal effect on D: Chinese sprangletop [5, 31]: 4 (Herbicidal rate of 70% or more and less than 90%) | herbicidal effect on E: rice flat sedge [6, 31]: 3 (Herbicidal rate of 40% or more and less than 70%) | herbicidal effect on F: southern crabgrass [7, 31]: 0 (Herbicidal rate of 5% or less (almost no effect)) | herbicidal effect on G: green foxtail [8, 31]: 0 (Herbicidal rate of 5% or less (almost no effect)) | herbicidal effect on H: barnyard grass [9, 31]: 0 (Herbicidal rate of 5% or less (almost no effect)) | herbicidal effect on I: wild oat [10, 31]: 0 (Herbicidal rate of 5% or less (almost no effect)) | herbicidal effect on J: blackgrass [11, 31]: 0 (Herbicidal rate of 5% or less (almost no effect)) | herbicidal effect on K: Italian ryegrass [12, 31]: 0 (Herbicidal rate of 5% or less (almost no effect)) | herbicidal effect on L: windgrass [13, 31]: 0 (Herbicidal rate of 5% or less (almost no effect)) | herbicidal effect on M: velvetleaf [14, 31]: 0 (Herbicidal rate of 5% or less (almost no effect)) | herbicidal effect on N: redroot pigweed [15]: 0 (Herbicidal rate of 5% or less (almost no effect)) | herbicidal effect on O: lambsquarters [16, 31]: 0 (Herbicidal rate of 5% or less (almost no effect)) | herbicidal effect on P: chickweed [17, 31]: 3 (Herbicidal rate of 40% or more and less than 70%) | herbicidal effect on R: persian speedwell [18, 31]: 4 (Herbicidal rate of 70% or more and less than 90%) | F: southern crabgrass, herbicidal effect (criteria 0-5) ([19]; AAH 320 g/ha): 0 (Herbicidal rate of 5% or less (almost no effect)) | G: green foxtail, herbicidal effect (criteria 0-5) ([20]; AAH 320 g/ha): 5 (Herbicidal rate of 90% or more (almost completely withered)) | H: barnyard grass, herbicidal effect (criteria 0-5) ([21]; AAH 320 g/ha): 5 (Herbicidal rate of 90% or more (almost completely withered)) | I: wild oat, herbicidal effect (criteria 0-5) ([22]; AAH 320 g/ha): 0 (Herbicidal rate of 5% or less (almost no effect)) | J: blackgrass, herbicidal effect (criteria 0-5) ([23]; AAH 320 g/ha): 0 (Herbicidal rate of 5% or less (almost no effect)) | K: Italian ryegrass, herbicidal effect (criteria 0-5) ([24]; AAH 320 g/ha): 0 (Herbicidal rate of 5% or less (almost no effect)) | M: velvetleaf, herbicidal effect (criteria 0-5) ([25]; AAH 320 g/ha): 5 (Herbicidal rate of 90% or more (almost completely withered)) | N: redroot pigweed, herbicidal effect (criteria 0-5) ([26]; AAH 320 g/ha): 5 (Herbicidal rate of 90% or more (almost completely withered)) | O: lambsquarters, herbicidal effect (criteria 0-5) ([27]; AAH 320 g/ha): 5 (Herbicidal rate of 90% or more (almost completely withered)) | P: chickweed, herbicidal effect (criteria 0-5) ([28]; AAH 320 g/ha): 5 (Herbicidal rate of 90% or more (almost completely withered)) | R: persian speedwell, herbicidal effect (criteria 0-5) ([29]; AAH 320 g/ha): 5 (Herbicidal rate of 90% or more (almost completely withered))

COc1ccccc1-c1sc2ccc(C)cc2c1-c1c(O)c(C)nn(C)c1=O [2-138]
Herbicidal effect on A: late watergrass (grade 0-5) ([1]; 176 g/ha applied herbicide): 5 (Herbicidal rate of 90% or more (almost completely withered)) | Herbicidal effect on B: Japanese bulrush (grade 0-5) ([2]; 176 g/ha applied herbicide): 0 (Herbicidal rate of 5% or less (almost no effect)) | Herbicidal effect on C: oval-leafed pondweed (grade 0-5) ([3]; 176 g/ha applied herbicide): 0 (Herbicidal rate of 5% or less (almost no effect)) | herbicidal effect on H: barnyard grass [4, 32]: 5 (Herbicidal rate of 90% or more (almost completely withered)) | herbicidal effect on D: Chinese sprangletop [5, 32]: 1 (Herbicidal rate of 5% or more and less than 20%) | herbicidal effect on E: rice flat sedge [6, 32]: 4 (Herbicidal rate of 70% or more and less than 90%) | F: southern crabgrass, herbicidal effect rating [7, 32]: 0 (Herbicidal rate of 5% or less (almost no effect)) | G: green foxtail, herbicidal effect rating [8, 32]: 4 (Herbicidal rate of 70% or more and less than 90%) | H: barnyard grass, herbicidal effect rating [9, 32]: 3 (Herbicidal rate of 40% or more and less than 70%) | I: wild oat, herbicidal effect rating [10, 32]: 0 (Herbicidal rate of 5% or less (almost no effect)) | J: blackgrass, herbicidal effect rating [11, 32]: 3 (Herbicidal rate of 40% or more and less than 70%) | K: Italian ryegrass, herbicidal effect rating [12, 32]: 0 (Herbicidal rate of 5% or less (almost no effect)) | L: windgrass, herbicidal effect rating [13, 32]: 0 (Herbicidal rate of 5% or less (almost no effect)) | M: velvetleaf, herbicidal effect rating [14, 32]: 0 (Herbicidal rate of 5% or less (almost no effect)) | O: lambsquarters, herbicidal effect rating [16, 32]: 5 (Herbicidal rate of 90% or more (almost completely withered)) | P: chickweed, herbicidal effect rating [17, 32]: 0 (Herbicidal rate of 5% or less (almost no effect)) | R: persian speedwell, herbicidal effect rating [18, 32]: 0 (Herbicidal rate of 5% or less (almost no effect)) | herbicidal effect on F: southern crabgrass ([19]; 176 g/ha): 3 (Herbicidal rate of 40% or more and less than 70%) | herbicidal effect on G: green foxtail ([20]; 176 g/ha): 4 (Herbicidal rate of 70% or more and less than 90%) | herbicidal effect on H: barnyard grass ([21]; 176 g/ha): 4 (Herbicidal rate of 70% or more and less than 90%) | herbicidal effect on I: wild oat ([22]; 176 g/ha): 0 (Herbicidal rate of 5% or less (almost no effect)) | herbicidal effect on J: blackgrass ([23]; 176 g/ha): 3 (Herbicidal rate of 40% or more and less than 70%) | herbicidal effect on K: Italian ryegrass ([24]; 176 g/ha): 3 (Herbicidal rate of 40% or more and less than 70%) | herbicidal effect on L: windgrass [30]: 4 (Herbicidal rate of 70% or more and less than 90%) | herbicidal effect on M: velvetleaf ([25]; 176 g/ha): 5 (Herbicidal rate of 90% or more (almost completely withered)) | herbicidal effect on N: redroot pigweed ([26]; 176 g/ha): 0 (Herbicidal rate of 5% or less (almost no effect)) | herbicidal effect on O: lambsquarters ([27]; 176 g/ha): 4 (Herbicidal rate of 70% or more and less than 90%) | herbicidal effect on P: chickweed ([28]; 176 g/ha): 5 (Herbicidal rate of 90% or more (almost completely withered)) | herbicidal effect on R: persian speedwell ([29]; 176 g/ha): 5 (Herbicidal rate of 90% or more (almost completely withered))
